Data on 34 molecules can be found in paper PMC5508670, “Conformationally restricted calpain inhibitors” (Chemical Science, 2015).

Read-outs that look alike come from different tables or passages of the source. Where only a bound is given, the exact number is not on record here.

The target of series [1] is Calpain-I. Also noted: method as in PMID 8692879. Particulars: cited from earlier work.
Another series has as its target Calpain-II. Also noted: method as in PMID 8692879. Particulars: cited from earlier work.
Series [2] addresses T1, calpain-I (Sus scrofa, UniProt P35750).
T1 construct: purchased CalBiochem
T1 sequence (P35750 1-714): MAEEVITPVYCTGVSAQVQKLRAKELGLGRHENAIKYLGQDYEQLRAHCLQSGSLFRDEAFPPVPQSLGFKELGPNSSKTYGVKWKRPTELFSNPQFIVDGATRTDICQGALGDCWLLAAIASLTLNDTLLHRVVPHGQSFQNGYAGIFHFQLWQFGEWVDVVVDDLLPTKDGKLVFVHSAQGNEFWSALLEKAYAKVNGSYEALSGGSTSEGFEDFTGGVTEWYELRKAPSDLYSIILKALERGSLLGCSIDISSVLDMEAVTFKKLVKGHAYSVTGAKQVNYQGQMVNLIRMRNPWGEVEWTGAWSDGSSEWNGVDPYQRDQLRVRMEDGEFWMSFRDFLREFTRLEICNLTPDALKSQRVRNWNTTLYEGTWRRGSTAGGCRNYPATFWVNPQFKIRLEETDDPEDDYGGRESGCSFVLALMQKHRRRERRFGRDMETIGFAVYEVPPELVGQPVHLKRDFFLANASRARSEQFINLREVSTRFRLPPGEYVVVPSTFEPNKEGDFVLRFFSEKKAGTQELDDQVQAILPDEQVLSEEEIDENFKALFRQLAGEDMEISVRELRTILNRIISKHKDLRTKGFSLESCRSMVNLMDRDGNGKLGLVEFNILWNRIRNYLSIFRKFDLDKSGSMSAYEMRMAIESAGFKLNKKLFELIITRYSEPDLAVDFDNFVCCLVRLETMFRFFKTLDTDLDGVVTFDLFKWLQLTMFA
T1 sequence (P04574 1-266): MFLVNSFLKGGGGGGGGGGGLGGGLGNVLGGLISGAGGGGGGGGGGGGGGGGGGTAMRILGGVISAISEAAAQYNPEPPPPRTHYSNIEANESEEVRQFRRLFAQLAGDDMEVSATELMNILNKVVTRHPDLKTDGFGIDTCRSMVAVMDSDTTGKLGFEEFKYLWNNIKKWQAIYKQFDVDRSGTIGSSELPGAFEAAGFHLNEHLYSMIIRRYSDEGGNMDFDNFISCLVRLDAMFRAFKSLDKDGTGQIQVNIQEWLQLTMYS
Kind of series: FRET-based calpain-I inhibition assay in the presence and absence of 10 mM DTT. In kind it is biochemical, porcine. The procedure:
The inhibitory properties of a series of oxidised and reduced α-mercaptoacrylic acid derivatives towards calpain-I (Fig. 4) were assessed in a FRET-based assay in the presence and absence of 10 mM dithiothreitol (DTT).[24],[25] To ensure complete oxidation, compounds were left in the assay solution for 3 hours prior to performing the assay (vide supra and ESI ^†). In the absence of inhibitors there was no observable difference in enzyme activity when assayed under both oxidising and reducing conditions.
Protein Expression, Crystallisation and FRET Based Inhibition Assay Methods […]
FRET based Inhibition Assay
This assay employed a peptide from the calpain-1 substrate α-spectrin, with fluorescein at one terminus internally quenched by DABCYL and the other (H2N-K(FAM)-EVYGMMK(DABCYL)-OH).11 Cleavage by calpain-1 occurs between the Tyr-Gly residues and results in enhanced fluorescence as the quenching effect is relieved. The assays were performed using purified porcine Calpain-1 (CalBiochem, 10 nM) and fluorogenic calpain-1 substrate (Merck, 1 µM) in an assay buffer consisting of HEPES (10 mM) pH 6.8; EDTA (0.5 mM); bovine serum albumin (0.1%). The assay was performed using a fluorescent plate reader (BMG Optistar) in an assay volume of 100 µl at a temperature of 37°C, using an excitation band pass filter centred at 485 nm and emission detected at 520 nm. The compounds to be tested for inhibition were added to the assay mixture before the reaction was initated by the addition of CaCl2 (5 mM).
None of the compounds had significant fluorescence at this wavelength and correction for this was unnecessary. The compounds were dissolved in DMSO at 50 mM and diluted into assay buffer to give range of concentrations from 5 nM to 50 µM. In each assay run, the effect of DMSO alone over the concentration used was also measured. Although there was no effect of DM SO at lower concentrations, in some assay runs, DM SO at 0.005%-0.5% produced some inhibitory effect. This DM SO effect (which was only relevant for compounds with poor inhibitory ability) was subtracted before constructing the inhibition curves.
FRET based inhibition assay (DTT addition)
The same procedure was used as described above except with assay buffer containing HEPES (10 mM) pH 6.8; EDTA (0.5 mM); bovine serum albumin (0.1%) and DTT (10 mM).

Series [3] in a line: Oxidation of sulfhydryl to disulfide in solution (UV-VIS / 1H-NMR). In kind it is physicochemical. The procedure:
The rate of conversion of 3 to its disulfide form was dependent upon both the concentration of the compound and the nature of the solution. […] […] Compound 4 was then added to preformed crystals of PEF(S).

Where [4] appears, read: presence of 10 mM DTT (reduced sulfhydryl form), read-out: IC50, Sulfhydryl.
The mark [5] stands for this setting: absence of DTT (oxidised disulfide form), compounds left 3 hours in assay solution before the assay, read-out: IC50, Disulfide.
Setting [6] is: absence of DTT (disulfide form), read-out: IC50 of oxidised compounds.
Where [7] appears, read: thioethers, 10 mM DTT, read-out: IC50 (DTT).
Setting [8] is: thioethers, no DTT, read-out: IC50 (No DTT).
Setting [9] is: thioethers, DTT had no effect on the potency, read-out: IC50.

For `O=C(O)/C(S)=C/c1ccc(I)cc1` [PD150606], the inhibition constant (Ki) (in general, the equilibrium dissociation constant of an inhibitor or competing ligand from its target) was 210 nM at Calpain-I [1] and 370 nM on Calpain-II.
With `O=C(O)/C(S)=C/c1c[nH]c2ccc(F)cc12` [PD151746], the Ki was 260 nM at Calpain-I [1] and 5330 nM at Calpain-II.
On to `O=C(O)/C(S)=C/c1c[nH]c2cc(Br)ccc12` [compound 3, (Z)-3-(6-bromoindole-3-yl)-2-mercaptoacrylic acid], for which, on calpain-I [2] (setting [4]), the IC50 (usually the concentration that inhibits the measured activity by half) is 500 nM. Also, the “time to complete conversion to oxidised (disulfide) form” value in series [3] (100 μM in 100 mM KiPO4, pH 7.0, room temperature, UV-VIS) was found to be 3 h. In series [3] (50 mM in DMSO, room temperature, 1H-NMR), the “time after which oxidation was complete” value stood at 24 h.
`O=C(O)/C(=C/c1c[nH]c2cc(Br)ccc12)SS/C(=C\c1c[nH]c2cc(Br)ccc12)C(=O)O` [compound 4, (2Z,2′Z)-2,2′-disulfanediylbis(3-(6-bromoindol-3-yl)acrylic acid)]: the IC50 at calpain-I [2] (disulfide prepared by iodine mediated oxidation and in situ prior to the assay, read-out: IC50 (dose response curve, Figure S8)) amounted to 200 nM.
For `O=C(O)/C(S)=C/c1ccccc1F` [compound 5], on calpain-I [2] (setting [4]), the IC50 worked out at 50000 nM.
`O=C(O)/C(=C/c1ccccc1F)SS/C(=C\c1ccccc1F)C(=O)O` [compound 6]: the half-maximal inhibitory concentration (IC50) on calpain-I [2] (setting [5]) stood at 65 nM.
For the molecule `O=C(O)/C(S)=C/c1ccccc1Cl` [compound 7], the IC50 at calpain-I [2] (setting [4]) is 60000 nM.
For `O=C(O)/C(S)=C/c1ccccc1Br` [compound 9], the IC50 on calpain-I [2] (setting [4]) turned out to be 50000 nM.
In the case of `O=C(O)/C(=C/c1ccccc1Br)SS/C(=C\c1ccccc1Br)C(=O)O` [compound 10], the IC50 on calpain-I [2] (setting [5]) worked out at 250 nM.
As for `O=C(O)/C(S)=C/c1cccc(F)c1` [compound 11], the IC50 at calpain-I [2] (setting [4]) came to 50000 nM.
`O=C(O)/C(S)=C/c1cccc(I)c1` [compound 16]: on calpain-I [2] (setting [4]), the half-inhibitory concentration (IC50) was 3000 nM.
In the case of `O=C(O)/C(=C/c1cccc(I)c1)SS/C(=C\c1cccc(I)c1)C(=O)O` [compound 17], the IC50 on calpain-I [2] (setting [6]) worked out at 25 nM.
In the case of `O=C(O)/C(S)=C/c1ccc(F)cc1` [compound 18], the IC50 at calpain-I [2] (setting [4]) was found to be 50000 nM.
Turning to `O=C(O)/C(=C/c1ccc(F)cc1)SS/C(=C\c1ccc(F)cc1)C(=O)O` [compound 19], at calpain-I [2] (setting [5]), the IC50 is 50 nM.
For `O=C(O)/C(=C/c1ccc(Cl)cc1)SS/C(=C\c1ccc(Cl)cc1)C(=O)O` [compound 21], the IC50 at calpain-I [2] (setting [5]) amounted to 10 nM.
For the molecule `O=C(O)/C(=C/c1ccc(I)cc1)SS/C(=C\c1ccc(I)cc1)C(=O)O` [compound 23], the IC50 at calpain-I [2] (setting [6]) amounted to 7.5 nM.
As to `O=C(O)/C(S)=C/c1c[nH]c2ccc(Cl)cc12` [compound 24], at calpain-I [2] (setting [4]), the IC50 is 1500 nM.
In the case of `O=C(O)/C(=C/c1c[nH]c2ccc(Cl)cc12)SS/C(=C\c1c[nH]c2ccc(Cl)cc12)C(=O)O` [compound 25], the IC50 at calpain-I [2] (setting [5]) amounted to 18 nM.
For `O=C(O)/C(S)=C/c1c[nH]c2ccc(Br)cc12` [compound 26], at calpain-I [2] (setting [4]), the IC50 was 500 nM.
Turning to `O=C(O)/C(=C/c1c[nH]c2ccc(Br)cc12)SS/C(=C\c1c[nH]c2ccc(Br)cc12)C(=O)O` [compound 27], the IC50 at calpain-I [2] (setting [5]) is 10 nM.
`O=C(O)/C(S)=C/c1c[nH]c2ccc(I)cc12` [compound 28]: the IC50 on calpain-I [2] (setting [4]) was found to be 500 nM.
In the case of `O=C(O)/C(=C/c1c[nH]c2ccc(I)cc12)SS/C(=C\c1c[nH]c2ccc(I)cc12)C(=O)O` [compound 29], the concentration for half-maximal inhibition (IC50) at calpain-I [2] (setting [5]) was 15 nM.
As for `O=C(O)/C(S)=C/c1c[nH]c2cc(Cl)ccc12` [compound 30], at calpain-I [2] (setting [4]), the IC50 stood at 1000 nM.
In the case of `O=C(O)/C(=C/c1c[nH]c2cc(Cl)ccc12)SS/C(=C\c1c[nH]c2cc(Cl)ccc12)C(=O)O` [compound 31], the IC50 at calpain-I [2] (setting [5]) is 28 nM.
As to `O=C(O)/C(S)=C/c1c[nH]c2cc(I)ccc12` [compound 34], the IC50 at calpain-I [2] (setting [4]) came out at 500 nM.
`O=C(O)/C(=C/c1c[nH]c2cc(I)ccc12)SS/C(=C\c1c[nH]c2cc(I)ccc12)C(=O)O` [compound 35]: the IC50 on calpain-I [2] (setting [5]) came out at 10 nM.
In the case of `O=C(O)/C(S)=C/c1c[nH]c2c(Cl)cccc12` [compound 36], on calpain-I [2] (setting [4]), the IC50 was determined as 4000 nM.
Consider `O=C(O)/C(=C/c1c[nH]c2c(Cl)cccc12)SS/C(=C\c1c[nH]c2c(Cl)cccc12)C(=O)O` [compound 37], for which, at calpain-I [2] (setting [5]), the IC50 came out at 23 nM.
For `O=C(O)/C(S)=C/c1c[nH]c2c(I)cccc12` [compound 38], the IC50 at calpain-I [2] (setting [4]) was 2000 nM.
Consider `O=C(O)/C(=C/c1c[nH]c2c(I)cccc12)SS/C(=C\c1c[nH]c2c(I)cccc12)C(=O)O` [compound 39], for which the IC50 on calpain-I [2] (setting [5]) is 20 nM.
Turning to `O=C(O)/C(=C/c1ccc(Br)cc1)CS/C(=C\c1ccc(Br)cc1)C(=O)O` [compound 40, (Z)-3-(4-Bromophenyl)-2-((((Z)-2-(4-bromophenyl)-1-carboxyvinyl)thio)methyl)acrylic acid], the IC50 on calpain-I [2] (setting [7]) and on calpain-I [2] (setting [8]) was 10000 nM throughout.
Turning to `O=C(O)/C(=C/c1cccc(Cl)c1)CS/C(=C\c1ccc(Cl)cc1)C(=O)O` [compound 41, (Z)-3-(3-chlorophenyl)-2-((((Z)-2-(4-chlorophenyl)-1-carboxyvinyl)thio)methyl)acrylic acid], the IC50 at calpain-I [2] (setting [7]), at calpain-I [2] (setting [8]) and at calpain-I [2] (setting [9]) was above 100000 nM throughout.
As for `O=C(O)/C(=C/c1cccc(Cl)c1)CS/C(=C\c1c[nH]c2ccc(Br)cc12)C(=O)O` [compound 42, (Z)-3-(5-bromoindol-3-yl)-2-(((Z)-2-carboxy-3-(3-chlorophenyl)allyl)thio)acrylic acid], the IC50 on calpain-I [2] (setting [8]) was found to be 2000 nM; on calpain-I [2] (setting [9]), 1800 nM.
For the molecule `O=C(O)/C(=C/c1ccc(Br)cc1)CS/C(=C\c1c[nH]c2cc(Br)ccc12)C(=O)O` [compound 43, (Z)-3-(6-bromoindol-3-yl)-2-(((Z)-3-(4-bromophenyl)-2-carboxyallyl)thio)acrylic acid], the IC50 on calpain-I [2] (setting [7]) and on calpain-I [2] (setting [8]) was 10000 nM in each case.
